Each block holds one molecule with its values, some of them ahead of it.
Experiments:
[1] = Sweetness detection threshold level in water, multi-sip and swallow taste method; format: in vivo, human; settings: for Sweetness Detection Threshold Level: in water at room temperature; for Sweetness Threshold Level: estimation sweetness/off-taste threshold in water at room temperature (RT)
Excerpt: As used herein, the terms “sweetness threshold,” “sweetness recognition threshold,” and “sweetness detection threshold” are understood to mean the level at which the lowest known concentration of a certain sweet compound that is perceivable by the human sense of taste and it can vary from person to person. For example, a typical sweetness threshold level for sucrose in water can be 0.5%.
Further for example, the at least one sweetness enhancer to be used can be assayed in water at least 25% lower and at least 25% higher than the sucrose detection level of 0.5% in water to determine the sweetness threshold level.
(§1) A first sip (approximately 2.2 mL) of a ca. 20 mL control composition was taken and swallowed. After waiting for a time ranging from 15 to 25 seconds, a second sip of control composition was taken and swallowed, and the sweetness and/or taste of the control composition was noted. After waiting for a time ranging from 15 to 25 seconds, these steps were repeated with a comparative composition. The sweetness and taste differences between the control and the comparative composition were noted. For each tested composition, this cycle was repeated once to confirm the initial findings. All samples were measured at average 23.0° C.±1° C. between samples for consistent comparison and to minimize any effects of temperature on the perceived taste or sweetness of the composition.
(§2) To perform the taste test, three sweetener samples were paired with one additive and taste tested as described above. A three minute break was taken before tasting another three sweetener samples paired with a different additive. Up to 10 additives per day were used to minimize a fatigue factor. Before tasting, at least 1.5 hours elapsed after ingestion of any food, drink or nicotine. The tests were repeated on a different date to validate the initial findings.
The sweetness detection threshold levels for 21 entities were measured by a single assessor in water at room temperature according to the multi-sip and swallow taste method described herein.

[2] = Sweetness enhancement of glucose, fructose or sucrose at 6% SE in water by additive at its threshold level; format: in vivo, human; set-up: key: T: Slight thicker-like sweetness (not intensity factor).; No difference; N(S+): No difference but slightly more sweet (0.5-0.75%); +S: More sweetness intensity (~1.0% SE); ++S: Much more sweetness intensity (~2.0% SE); settings: room temperature, additive at its Table 1 threshold level; for Sensory result versus FRU 55,000 ppm: fructose at 6% SE in water; for Sensory result versus GLU 99,000 ppm: glucose at 6% SE in water; for Sensory result versus SUC 60,000 ppm: sucrose at 6% SE in water
Experimental: as §1, §2
The twenty-one entities above were combined in a concentration at the sweetness detection threshold level listed in Table 1, with one of Glucose (GLU), Fructose (FRU), and Sucrose (SUG), each at a fixed SE (Sucrose Equivalents) level of 6%. The sweetness of the compositions was measured as described above at room temperature.

[3] = By-products of 500 ppm REB A after two months of storage in phosphoric acid at RT; format: physicochemical; settings: approximated concentration of by-product of 500 ppm REB A
[4] = value is min. off-taste threshold

Molecule: C=C1CC23CCC4C(C)(C(=O)OC5OC(CO)C(O)C(O)C5O)CCCC4(C)C2CCC1(O)C3 [13-hydroxy-kaur-16-en-18-oic acid β-D-glucopyranosyl ester]
Sweetness Detection Threshold Level [1, 4]: 10 ppm
Sensory result versus FRU 55,000 ppm [2]: N
Sensory result versus GLU 99,000 ppm [2]: N
Sensory result versus SUC 60,000 ppm [2]: N

Levels After 2 Month of Storage [3]: 10 ppm
Molecule: CC1(C(=O)OC2OC(CO)C(O)C(O)C2O)CCCC2(C)C3CCC4(OC5OC(CO)C(O)C(OC6OC(CO)C(O)C(O)C6O)C5OC5OC(CO)C(O)C(O)C5O)CC3(CCC12)CC4(C)O [13-[(2-O-β-D-glucopyranosyl-3-O-β-D-glucopyranosyl-β-D-glucopyranosyl)oxy]-16-hydroxy kauran-18-oic acid β-D-glucopyranosyl ester]
Sweetness Threshold Level [1]: 700 ppm
Sweetness Detection Threshold Level ([1]; single assessor): 700 ppm
Sensory result versus FRU 55,000 ppm [2]: N
Sensory result versus GLU 99,000 ppm [2]: N
Sensory result versus SUC 60,000 ppm [2]: N

Molecule: C=C1C[C@@]23CC[C@H]4[C@@](C)(CCC[C@@]4(C)C(=O)O[C@@H]4O[C@H](CO)[C@@H](O)[C@H](O)[C@H]4O)[C@@H]2CC[C@]1(O[C@@H]1O[C@H](CO)[C@@H](O)[C@H](O[C@@H]2O[C@H](CO)[C@@H](O[C@H]4O[C@H](CO)[C@@H](O)[C@H](O)[C@H]4O)[C@H](O)[C@H]2O)[C@H]1O[C@@H]1O[C@H](CO)[C@@H](O)[C@H](O)[C@H]1O)C3 [13-[(2-O-β-D-glucopyranosyl-3-O-(4-O-α-D-glucopyranosyl)-β-D-glucopyranosyl-β-D-glucopyranosyl)oxy] kaur-16-en-18-oic acid β-D-glucopyranosyl ester]
Sweetness Detection Threshold Level ([1]; single assessor): 50 ppm
Sensory result versus FRU 55,000 ppm [2]: T
Sensory result versus GLU 99,000 ppm [2]: T
Sensory result versus SUC 60,000 ppm [2]: N

Molecule: C=C1C[C@@]23CC[C@H]4[C@@](C)(CCC[C@@]4(C)C(=O)O[C@@H]4O[C@H](CO)[C@@H](O)[C@H](O)[C@H]4O)[C@@H]2CC[C@]1(O[C@@H]1O[C@H](CO)[C@@H](O)[C@H](O[C@@H]2O[C@H](CO)[C@@H](O)[C@H](O)[C@H]2O)[C@H]1O)C3 [13-[(3-O-β-D-glucopyranosyl-β-D-glucopyranosyl)oxy] kaur-16-en-18-oic acid β-D-glucopyranosyl ester]
Sweetness Detection Threshold Level ([1]; single assessor): 35 ppm
Sensory result versus FRU 55,000 ppm [2]: N
Sensory result versus GLU 99,000 ppm [2]: N
Sensory result versus SUC 60,000 ppm [2]: N

Molecule: C[C@@]12CC[C@@H]3[C@@](CC[C@H]4[C@@]3(C)CCC[C@@]4(C)C(=O)OC3OC(CO)C(O)C(O)C3O)(CC1=O)C2 (stereo partly drawn) [13-methyl-16-oxo-17-norkauran-18-oic acid β-D-glucopyranosyl ester]
Sweetness Detection Threshold Level [1, 4]: 15 ppm
Sensory result versus FRU 55,000 ppm [2]: N
Sensory result versus GLU 99,000 ppm [2]: N
Sensory result versus SUC 60,000 ppm [2]: N

Levels After 2 Month of Storage [3]: 1 ppm
Molecule: C[C@@]12CCC[C@@](C)(C(=O)O[C@@H]3O[C@H](CO)[C@@H](O)[C@H](O)[C@H]3O)[C@H]1CC[C@]13C=C(CO)[C@](O[C@@H]4O[C@H](CO)[C@@H](O)[C@H](O[C@@H]5O[C@H](CO)[C@@H](O)[C@H](O)[C@H]5O)[C@H]4O[C@@H]4O[C@H](CO)[C@@H](O)[C@H](O)[C@H]4O)(CC[C@H]12)C3 [13-[(2-O-β-D-glucopyranosyl-3-O-β-D-glucopyranosyl]-β-D-glucopyranosyl)oxy]-17-hydroxy-kaur-15-en-18-oic acid β-D-glucopyranosyl ester]
Sweetness Threshold Level [1]: 250 ppm
Sweetness Detection Threshold Level ([1]; single assessor): 250 ppm
Sensory result versus FRU 55,000 ppm [2]: N
Sensory result versus GLU 99,000 ppm [2]: N
Sensory result versus SUC 60,000 ppm [2]: N(S+) (No difference but slightly more sweet (0.5-0.75%))

Molecule: Rebaudioside F
Sweetness Detection Threshold Level ([1]; single assessor): 25 ppm
Sensory result versus FRU 55,000 ppm [2]: N
Sensory result versus GLU 99,000 ppm [2]: N
Sensory result versus SUC 60,000 ppm [2]: N(S+) (No difference but slightly more sweet (0.5-0.75%))

Molecule: CC1=CC23CCC4C(C)(C(=O)OC5OC(CO)C(O)C(O)C5O)CCCC4(C)C2CCC1(OC1OC(CO)C(O)C(OC2OC(CO)C(O)C(O)C2O)C1OC1OC(CO)C(O)C(O)C1O)C3 [13-[(2-O-β-D-glucopyranosyl-3-O-β-D-glucopyranosyl-β-D-glucopyranosyl)oxy] kaur-15-en-18-oic acid β-D-glucopyranosyl ester]
Sweetness Detection Threshold Level ([1]; single assessor): 25 ppm
Sensory result versus FRU 55,000 ppm [2]: N(S+) (No difference but slightly more sweet (0.5-0.75%))
Sensory result versus GLU 99,000 ppm [2]: N
Sensory result versus SUC 60,000 ppm [2]: N(S+) (No difference but slightly more sweet (0.5-0.75%))

Molecule: C[C@H](CC[C@@H](O[C@@H]1O[C@H](CO[C@@H]2O[C@H](CO)[C@@H](O)[C@H](O)[C@H]2O)[C@@H](O)[C@H](O)[C@H]1O[C@@H]1O[C@H](CO)[C@@H](O)[C@H](O)[C@H]1O)C(C)(C)O)[C@H]1CC[C@@]2(C)[C@@H]3CC=C4[C@@H](CC[C@H](O[C@@H]5O[C@H](CO[C@@H]6O[C@H](CO)[C@@H](O)[C@H](O)[C@H]6O)[C@@H](O)[C@H](O)[C@H]5O)C4(C)C)[C@]3(C)[C@H](O)C[C@]12C [Mogroside V]
Sweetness Detection Threshold Level ([1]; single assessor): 20 ppm
Sensory result versus FRU 55,000 ppm [2]: N
Sensory result versus GLU 99,000 ppm [2]: N
Sensory result versus SUC 60,000 ppm [2]: N

Molecule: C=C1C[C@@]23CC[C@H]4[C@@](C)(CCC[C@@]4(C)C(=O)O[C@@H]4O[C@H](CO)[C@@H](O)[C@H](O)[C@H]4O)[C@@H]2CC[C@]1(O[C@@H]1O[C@H](CO)[C@@H](O)[C@H](O)[C@H]1O[C@@H]1O[C@@H](C)[C@H](O)[C@@H](O)[C@H]1O)C3 [Dulcoside A]
Sweetness Detection Threshold Level ([1]; single assessor): 50 ppm
Sensory result versus FRU 55,000 ppm [2]: N
Sensory result versus GLU 99,000 ppm [2]: N
Sensory result versus SUC 60,000 ppm [2]: N

Molecule: C=C1C[C@@]23CC[C@H]4[C@@](C)(CCC[C@@]4(C)C(=O)O[C@@H]4O[C@H](CO)[C@@H](O)[C@H](O)[C@H]4O)[C@@H]2CC[C@]1(O[C@@H]1O[C@H](CO)[C@@H](O)[C@H](O)[C@H]1O[C@@H]1O[C@H](CO)[C@@H](O)[C@H](O)[C@H]1O)C3 [Stevioside]
Sweetness Detection Threshold Level ([1]; single assessor): 25 ppm
Sensory result versus FRU 55,000 ppm [2]: N
Sensory result versus GLU 99,000 ppm [2]: N
Sensory result versus SUC 60,000 ppm [2]: N

Molecule: C=C1C[C@@]23CC[C@H]4[C@@](C)(CCC[C@@]4(C)C(=O)O[C@@H]4O[C@H](CO)[C@@H](O)[C@H](O)[C@H]4O)[C@@H]2CC[C@]1(O[C@@H]1O[C@H](CO)[C@@H](O)[C@H](O[C@@H]2O[C@H](CO)[C@@H](O)[C@H](O)[C@H]2O)[C@H]1O[C@@H]1O[C@H](CO)[C@@H](O)[C@H](O)[C@H]1O)C3 [Rebaudioside A]
Sweetness Detection Threshold Level ([1]; single assessor): 12.6 ppm
Sensory result versus FRU 55,000 ppm [2]: N
Sensory result versus GLU 99,000 ppm [2]: N
Sensory result versus SUC 60,000 ppm [2]: N

Molecule: C=C1C[C@@]23CC[C@H]4[C@@](C)(CCC[C@@]4(C)C(=O)OC4OC(C(=O)O)C(O)C(O)C4O)[C@@H]2CC[C@]1(O)C3 (stereo partly shown) [Steviol glucuronide]
Sweetness Detection Threshold Level ([1]; single assessor): 85 ppm
Sensory result versus FRU 55,000 ppm [2]: N
Sensory result versus GLU 99,000 ppm [2]: N
Sensory result versus SUC 60,000 ppm [2]: N

Molecule: C=C1C[C@@]23CC[C@H]4[C@@](C)(CCC[C@@]4(C)C(=O)O[C@@H]4O[C@H](CO)[C@@H](O)[C@H](O)[C@H]4O[C@@H]4O[C@H](CO)[C@@H](O)[C@H](O)[C@H]4O)[C@@H]2CC[C@]1(O[C@@H]1O[C@H](CO)[C@@H](O)[C@H](O[C@@H]2O[C@H](CO)[C@@H](O)[C@H](O)[C@H]2O)[C@H]1O[C@@H]1O[C@H](CO)[C@@H](O)[C@H](O)[C@H]1O)C3 [Rebaudioside D]
Sweetness Detection Threshold Level ([1]; single assessor): 25 ppm
Sensory result versus FRU 55,000 ppm [2]: N
Sensory result versus GLU 99,000 ppm [2]: N
Sensory result versus SUC 60,000 ppm [2]: N(S+) (No difference but slightly more sweet (0.5-0.75%))

Molecule: C=C1C[C@@]23CC[C@H]4[C@@](C)(CCC[C@@]4(C)C(=O)O)[C@@H]2CC[C@]1(O[C@@H]1O[C@H](CO)[C@@H](O)[C@H](O)[C@H]1O[C@@H]1O[C@H](CO)[C@@H](O)[C@H](O)[C@H]1O)C3 [Steviolbioside]
Sweetness Detection Threshold Level ([1]; single assessor): 50 ppm
Sensory result versus FRU 55,000 ppm [2]: N
Sensory result versus GLU 99,000 ppm [2]: N
Sensory result versus SUC 60,000 ppm [2]: N
